According to patent publication US20150105252A1, “SUBSTITUTED PYRAZOLES AS HERBICIDES” (E I DU PONT DE NEMOURS AND COMPANY, priority 2013, published 2015):

How the values were obtained:
barnyardgrass [1] = experiment: Test A preemergence; format: in vivo, Echinochloa crus-galli; conditions: 0 to 100 scale
In short: (§1)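 Ratings express plant response from 0 (no effect) to 100 (complete control), judged visually against untreated controls after approximately 10 days in the greenhouse. Preemergence applications were made as directed soil sprays onto seeded loam–sand mix, and postemergence applications onto 2–10 cm plants at one- to two-leaf stage.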

crabgrass, large [2] = experiment: Test A preemergence; format: in vivo, Digitaria sanguinalis; conditions: 0 to 100 scale
In short: as §1

foxtail, giant [3] = experiment: Test A preemergence; format: in vivo, Setaria faberii; conditions: 0 to 100 scale
In short: as §1

morningglory [4] = experiment: Test A preemergence; format: in vivo, Ipomoea spp.; conditions: 0 to 100 scale
In short: as §1

pigweed [5] = experiment: Test A preemergence; format: in vivo, Amaranthus retroflexus; conditions: 0 to 100 scale
In short: as §1

velvetleaf [6] = experiment: Test A preemergence; format: in vivo, Abutilon theophrasti; conditions: 0 to 100 scale
In short: as §1

wheat [7] = experiment: Test A preemergence; format: in vivo, Triticum aestivum; conditions: 0 to 100 scale
In short: as §1

corn [8] = experiment: Test A preemergence; format: in vivo, Zea mays; conditions: 0 to 100 scale
In short: as §1

barnyardgrass [9] = experiment: Test A postemergence; format: in vivo, Echinochloa crus-galli; conditions: Postemergence
In short: as §1

crabgrass, large [10] = experiment: Test A postemergence; format: in vivo, Digitaria sanguinalis
In short: as §1

foxtail, giant [11] = experiment: Test A postemergence; format: in vivo, Setaria faberii
In short: as §1

morningglory [12] = experiment: Test A postemergence; format: in vivo, Ipomoea spp.
In short: as §1

pigweed [13] = experiment: Test A postemergence; format: in vivo, Amaranthus retroflexus
In short: as §1

velvetleaf [14] = experiment: Test A postemergence; format: in vivo, Abutilon theophrasti
In short: as §1

wheat [15] = experiment: Test A postemergence; format: in vivo, Triticum aestivum
In short: as §1

corn [16] = experiment: Test A postemergence; format: in vivo, Zea mays
In short: as §1

rice = experiment: Test C flooded paddy test; format: in vivo, Oryza sativa; conditions: Flood
Description: (§2) At time of treatment, test pots were flooded to 3 cm above the soil surface, treated by application of test compounds directly to the paddy water, and then maintained at that water depth for the duration of the test. Treated plants and controls were maintained in a greenhouse for 13 to 15 days, after which time all species were compared to controls and visually evaluated. […] A dash (-) response means no test result.

sedge, umbrella = experiment: Test C flooded paddy test; format: in vivo, Cyperus difformis; conditions: Flood
Description: as §2

ducksalad = experiment: Test C flooded paddy test; format: in vivo, Heteranthera limosa; conditions: Flood
Description: as §2

barnyardgrass [17] = experiment: Test C flooded paddy test; format: in vivo, Echinochloa crus-galli; conditions: Flood
Description: as §2

[18] = Preemergence, 1000 g ai/ha, 0 no effect, 100 complete control
[19] = 1000 g ai/ha, visual rating after approx. 10 days, 0 to 100 scale (0 no effect, 100 complete control)
[20] = Postemergence, 1000 g ai/ha, visual rating after approx. 10 days, 0 to 100 scale (0 no effect, 100 complete control)
[21] = 31 g ai/ha, scale 0 to 100 (0 no effect, 100 complete control)
[22] = 62 g ai/ha, scale 0 to 100 (0 no effect, 100 complete control)
[23] = Preemergence, 500 g ai/ha, 0 no effect, 100 complete control
[24] = preemergence, 125 g ai/ha, visual injury, approx. 10 days
[25] = 125 g ai/ha, 0 to 100 scale, 0 no effect, 100 complete control
[26] = 500 g ai/ha, visual rating after approx. 10 days, 0 to 100 scale (0 no effect, 100 complete control)
[27] = Postemergence, 500 g ai/ha, visual rating after approx. 10 days, 0 to 100 scale (0 no effect, 100 complete control)
[28] = postemergence, 125 g ai/ha, about 10 days, visual rating on 0 to 100 scale (0 no effect, 100 complete control)

CCCNC(=O)c1cc(CC)n(Cc2cccc(C(F)(F)F)c2)n1 [Compound 16]
30: Velvetleaf plant response rating (velvetleaf [6]; [18])
80: Crabgrass, Large plant response rating (crabgrass, large [10]; [20]) | Foxtail, Giant plant response rating (foxtail, giant [11]; [20])
25: Plant response rating, Rice (rice; 125 g ai/ha, scale 0 to 100) | Plant response rating, Rice (rice; 250 g ai/ha, scale 0 to 100)
95: Plant response rating, Ducksalad (ducksalad; 125 g ai/ha, scale 0 to 100)
85: Plant response rating, Sedge, Umbrella (sedge, umbrella; [22]) | Plant response rating, Ducksalad (ducksalad; [22])
60: Barnyardgrass plant response rating (barnyardgrass [9]; [19])
70: Plant response rating, Sedge, Umbrella (sedge, umbrella; [21])
100: Crabgrass, Large plant response rating (crabgrass, large [2]; [18]) | Foxtail, Giant plant response rating (foxtail, giant [3]; [18]) | Morningglory plant response rating (morningglory [4]; [18]) | Pigweed plant response rating (pigweed [5]; [18]) | Morningglory plant response rating (morningglory [12]; [20]) | Velvetleaf plant response rating (velvetleaf [14]; [20]) | Plant response rating, Sedge, Umbrella (sedge, umbrella; 125 g ai/ha, scale 0 to 100) | Plant response rating, Sedge, Umbrella (sedge, umbrella; 250 g ai/ha, scale 0 to 100) | Plant response rating, Ducksalad (ducksalad; 250 g ai/ha, scale 0 to 100)
0: Plant response rating, Rice (rice; [21]) | Plant response rating, Rice (rice; [22]) | Plant response rating, Barnyardgrass (barnyardgrass [17]; [21]) | Plant response rating, Barnyardgrass (barnyardgrass [17]; [22]) | Plant response rating, Barnyardgrass (barnyardgrass [17]; 125 g ai/ha, scale 0 to 100)
20: Plant response rating, Barnyardgrass (barnyardgrass [17]; 250 g ai/ha, scale 0 to 100)
50: Wheat plant response rating (wheat [7]; [18]) | Corn plant response rating (corn [8]; [18]) | Wheat plant response rating (wheat [15]; [20]) | Corn plant response rating (corn [16]; [20]) | Plant response rating, Ducksalad (ducksalad; [21])
90: Barnyardgrass plant response rating (barnyardgrass [1]; [18]) | Pigweed plant response rating (pigweed [13]; [20])

CCCc1cc(C(=O)NCC)nn1Cc1cccc(OC(F)(F)F)c1 [Compound 33]
70: Foxtail, Giant plant response rating (foxtail, giant [11]; [20])
20: Wheat plant response rating (wheat [15]; [20]) | Corn plant response rating (corn [16]; [20]) | Plant response rating, Ducksalad (ducksalad; 125 g ai/ha, scale 0 to 100)
85: Plant response rating, Sedge, Umbrella (sedge, umbrella; 250 g ai/ha, scale 0 to 100)
30: Barnyardgrass plant response rating (barnyardgrass [9]; [19]) | Plant response rating, Sedge, Umbrella (sedge, umbrella; [22]) | Plant response rating, Sedge, Umbrella (sedge, umbrella; 125 g ai/ha, scale 0 to 100)
40: Barnyardgrass plant response rating (barnyardgrass [1]; [18]) | Morningglory plant response rating (morningglory [4]; [18]) | Velvetleaf plant response rating (velvetleaf [6]; [18])
10: Wheat plant response rating (wheat [7]; [18]) | Plant response rating, Sedge, Umbrella (sedge, umbrella; [21]) | Plant response rating, Ducksalad (ducksalad; [22])
100: Crabgrass, Large plant response rating (crabgrass, large [2]; [18]) | Morningglory plant response rating (morningglory [12]; [20])
90: Foxtail, Giant plant response rating (foxtail, giant [3]; [18]) | Pigweed plant response rating (pigweed [5]; [18])
80: Crabgrass, Large plant response rating (crabgrass, large [10]; [20]) | Pigweed plant response rating (pigweed [13]; [20]) | Velvetleaf plant response rating (velvetleaf [14]; [20]) | Plant response rating, Ducksalad (ducksalad; 250 g ai/ha, scale 0 to 100)
0: Corn plant response rating (corn [8]; [18]) | Plant response rating, Rice (rice; [21]) | Plant response rating, Rice (rice; [22]) | Plant response rating, Rice (rice; 125 g ai/ha, scale 0 to 100) | Plant response rating, Rice (rice; 250 g ai/ha, scale 0 to 100) | Plant response rating, Ducksalad (ducksalad; [21]) | Plant response rating, Barnyardgrass (barnyardgrass [17]; [21]) | Plant response rating, Barnyardgrass (barnyardgrass [17]; [22]) | Plant response rating, Barnyardgrass (barnyardgrass [17]; 125 g ai/ha, scale 0 to 100) | Plant response rating, Barnyardgrass (barnyardgrass [17]; 250 g ai/ha, scale 0 to 100)

Cc1cc(C(=O)NCC(F)(F)F)nn1Cc1cccc(OC(F)(F)F)c1 [Compound 5]
75: Plant response rating, Sedge, Umbrella (sedge, umbrella; 250 g ai/ha, scale 0 to 100)
10: Foxtail, Giant plant response rating (foxtail, giant [3]; [24]) | Pigweed plant response rating (pigweed [5]; [24]) | Barnyardgrass plant response rating (barnyardgrass [9]; [25]) | Crabgrass, Large plant response rating (crabgrass, large [10]; [28]) | Foxtail, Giant plant response rating (foxtail, giant [11]; [28]) | Wheat plant response rating (wheat [15]; [27]) | Corn plant response rating (corn [16]; [28])
90: Pigweed plant response rating (pigweed [13]; [27])
0: Barnyardgrass plant response rating (barnyardgrass [1]; [24]) | Morningglory plant response rating (morningglory [4]; [24]) | Velvetleaf plant response rating (velvetleaf [6]; [24]) | Wheat plant response rating (wheat [7]; [24]) | Corn plant response rating (corn [8]; [23]) | Corn plant response rating (corn [8]; [24]) | Wheat plant response rating (wheat [15]; [28]) | Plant response rating, Rice (rice; [22]) | Plant response rating, Rice (rice; 250 g ai/ha, scale 0 to 100) | Plant response rating, Ducksalad (ducksalad; [22]) | Plant response rating, Barnyardgrass (barnyardgrass [17]; [22]) | Plant response rating, Barnyardgrass (barnyardgrass [17]; 250 g ai/ha, scale 0 to 100)
100: Crabgrass, Large plant response rating (crabgrass, large [2]; [23]) | Pigweed plant response rating (pigweed [5]; [23]) | Morningglory plant response rating (morningglory [12]; [27])
70: Foxtail, Giant plant response rating (foxtail, giant [3]; [23]) | Crabgrass, Large plant response rating (crabgrass, large [10]; [27])
40: Morningglory plant response rating (morningglory [4]; [23]) | Barnyardgrass plant response rating (barnyardgrass [9]; [26]) | Morningglory plant response rating (morningglory [12]; [28]) | Corn plant response rating (corn [16]; [27])
50: Pigweed plant response rating (pigweed [13]; [28]) | Plant response rating, Sedge, Umbrella (sedge, umbrella; [22])
60: Barnyardgrass plant response rating (barnyardgrass [1]; [23]) | Foxtail, Giant plant response rating (foxtail, giant [11]; [27]) | Velvetleaf plant response rating (velvetleaf [14]; [27]) | Plant response rating, Ducksalad (ducksalad; 250 g ai/ha, scale 0 to 100)
20: Crabgrass, Large plant response rating (crabgrass, large [2]; [24]) | Velvetleaf plant response rating (velvetleaf [6]; [23]) | Velvetleaf plant response rating (velvetleaf [14]; [28])

Cc1cc(C(=O)NCC(F)(F)C(F)(F)F)nn1Cc1cccc(OC(F)(F)F)c1 [Compound 6]
40: Velvetleaf plant response rating (velvetleaf [14]; [27])
0: Barnyardgrass plant response rating (barnyardgrass [1]; [23]) | Barnyardgrass plant response rating (barnyardgrass [1]; [24]) | Crabgrass, Large plant response rating (crabgrass, large [2]; [24]) | Foxtail, Giant plant response rating (foxtail, giant [3]; [24]) | Morningglory plant response rating (morningglory [4]; [23]) | Morningglory plant response rating (morningglory [4]; [24]) | Velvetleaf plant response rating (velvetleaf [6]; [23]) | Velvetleaf plant response rating (velvetleaf [6]; [24]) | Wheat plant response rating (wheat [7]; [24]) | Corn plant response rating (corn [8]; [23]) | Corn plant response rating (corn [8]; [24]) | Barnyardgrass plant response rating (barnyardgrass [9]; [25]) | Wheat plant response rating (wheat [15]; [27]) | Wheat plant response rating (wheat [15]; [28]) | Corn plant response rating (corn [16]; [27]) | Corn plant response rating (corn [16]; [28])
60: Morningglory plant response rating (morningglory [12]; [27]) | Pigweed plant response rating (pigweed [13]; [27])
30: Pigweed plant response rating (pigweed [5]; [24]) | Crabgrass, Large plant response rating (crabgrass, large [10]; [27]) | Morningglory plant response rating (morningglory [12]; [28])
10: Barnyardgrass plant response rating (barnyardgrass [9]; [26]) | Crabgrass, Large plant response rating (crabgrass, large [10]; [28]) | Foxtail, Giant plant response rating (foxtail, giant [11]; [28]) | Velvetleaf plant response rating (velvetleaf [14]; [28])
20: Crabgrass, Large plant response rating (crabgrass, large [2]; [23]) | Foxtail, Giant plant response rating (foxtail, giant [3]; [23]) | Foxtail, Giant plant response rating (foxtail, giant [11]; [27])
50: Pigweed plant response rating (pigweed [5]; [23]) | Pigweed plant response rating (pigweed [13]; [28])
